Data reported in patent publication US12643867B2, “Compositions and uses thereof” (University of Virginia Patent Foundation, priority 2017, dated 2026).

Assays:
[1] = test system: A549 cells; test: WST-1 Cell Proliferation Assay; format: cell-based; settings: for cell viability (WST-1), words: ritanserin, ketanserin 5-50 μM, staurosporine 1 μM
Protocol: (§1) WST-1 Cell Proliferation Assays. Tumor cells were plated in transparent tissue-culture treated 96-well plates at a density of 100,000 cells/mL (A549, H1650) or 200,000 cells/mL (H82) in a volume of 100 μL per well. Cells were treated with dimethyl sulfoxide (DMSO) vehicle or inhibitors dissolved in DMSO at the indicated concentrations (final DMSO concentration of 0.5%). Cells were allowed to grow for indicated times at 37° C. under 5% CO2. Afterwards, equal parts of WST-1 developer reagent and electron mediator solution were mixed and 10 μL of the resulting solution (‘WST-1 reagent’) were added to each well. Plates were shaken in an orbital shaker for 60 s and then returned to the incubator for two hrs. Plates were again shaken followed measurement of absorbance at 450 nm. Data were normalized to DMSO-treated wells and significance values determined with one-way ANOVA.

[2] = test system: H1650 cells; test: WST-1 Cell Proliferation Assay; format: cell-based; settings: for cell viability (WST-1), words: ritanserin, ketanserin 5-50 μM, staurosporine 1 μM
Protocol: as §1

[3] = test system: H82 cells; test: WST-1 Cell Proliferation Assay; format: cell-based; settings: for cell viability (WST-1), words: ritanserin, ketanserin 5-50 μM, staurosporine 1 μM
Protocol: as §1

[4] = test system: A549 cells; test: CaspaseGlo 3/7 assay; format: cell-based; settings: 24 hours
Protocol: (§2) Caspase Glo Assays. Assays were performed as directed by the manufacturer (Promega). Briefly, tumor cells were plated in black tissue-culture treated transparent-bottom 96 well plates at a density of 200,000 cells/mL (A549, H1650) or 400,000 cells/mL (H82) in a volume of 50 μL/well. Cells were treated with inhibitors at the indicated concentrations (final DMSO concentration of 0.5%) for 24 hrs at 37° C. under 5% CO2. Afterwards, 50 μL of the prepared CaspaseGlo reagent was added to each well. The reaction was allowed to proceed at 37° C. under 5% CO2 for 1 hr, at which point the cells were shaken in an orbital shaker at 500 rpm for 60 s and then luminescence was read for each well. Data were normalized to DMSO-treated wells and significance values determined with one-way ANOVA.

[5] = test system: H1650 cells; test: CaspaseGlo 3/7 assay; format: cell-based; settings: 24 hours
Protocol: as §2

[6] = test system: H82 cells; test: CaspaseGlo 3/7 assay; format: cell-based; settings: 24 hours
Protocol: as §2

[7] = biological target: T1, recombinant RAF1 (Homo sapiens, UniProt P04049); test: RAF1 (CRAF) substrate assay; format: biochemical; settings: RAF1-HEK293T proteomes
T1 construct: expressed in transfected cells; host or cells: HEK293T
Protocol: Given the potential for indirect inhibitory effects in the competition studies in lysates, ritanserin activity was tested in a CRAF substrate assay. Ritanserin inhibition was measured against recombinant RAF1 using commercial substrate assays. […] RAF1 was overexpressed in HEK293T cells and measured recombinant RAF1 activity by comparing with non-transfected HEK293T (i.e. mock) proteomes.

[8] = biological target: T2, CRAF (Homo sapiens, UniProt P04049); test: ATP acyl phosphate chemical proteomics in lung cancer cell proteomes; format: binding; settings: for CRAF ATP acyl-phosphate labeling response (words, FIG. 20): H82 and HEK293T lysates, 100 μM Rit, 1 mM RF001
T2 construct: measure selectivity of compounds against native kinases detected in lung cancer proteomes; endogenous in cells; host or cells: H82 small cell lung cancer (and HEK293T) cell lysates; CRAF not detected in A549
Protocol: (§3) LC-MS analysis of SILAC samples using ATP acyl phosphates. Quantitative chemoproteomics was performed as previously described (Franks et al., 2017; McCloud et al., 2018).
Computational Methods. Data for A549 and H82 cell lines were searched with IP2 and manually validated using the methods previously described (Franks et al., 2017). Data for Desthiobiotin-tagged ATP acyl-phosphate probes and ATP competitive peptides were compared and clustered. Ritanserin and ketanserin inhibition profiles were compared using SILAC ratios and normalized to DMSO.
Based on previous chemical proteomics (Franks, 2017), it was hypothesized that ritanserin is functioning as a kinase inhibitor to mediate cytotoxicity in the lung cancer cell models. […] For these studies, NSCLC and SCLC cells were cultured in isotopically light and heavy amino acids to enable quantitative chemical proteomics (Chang. 2015) by stable isotope labeling with amino acids in cell culture (SILAC, FIG. 17A). […] After probe labeling, light and heavy proteomes were combined, digested with trypsin protease, and desthiobiotin-modified peptides enriched by avidin affinity chromatography and analyzed by LC-MS/MS to identify and quantify isotopically tagged active-site peptides from native kinases as previously described(Franks, 2017) (FIG. 17A).
(§4) To further confirm that ritanserin is a CRAF inhibitor, a targeted parallel reaction monitoring method (PRM) was developed to evaluate compound activity against CRAF and other members of the RAF family (ARAF and BRAF). Targeted PRM was needed because of the low abundance of CRAF compared with ARAF and BRAF). […] Ritanserin activity was also measured against RAF kinases in A549 proteomes using the targeted LC-MS method. […] The data further support previous findings that this RAF member is enriched in SCLC cells (REF).

[9] = test system: Bone Marrow Derived Macrophages (BMDMs), noncancerous primary cells; test: WST-1 Cell Proliferation Assay; format: cell-based; settings: ritanserin highest concentration tested 50 μM; staurosporine 1 μM
[10] = biological target: T3, ARAF (Homo sapiens, UniProt P10398); test: ATP acyl phosphate chemical proteomics in lung cancer cell proteomes (targeted PRM); format: binding; settings: H82 proteomes
T3 construct: measure selectivity of compounds against native kinases detected in lung cancer proteomes; endogenous in cells; host or cells: H82 (and A549) cell proteomes
Protocol: as §3, §4

[11] = humans, cited from earlier work

T2 sequence (P04049 whole entry): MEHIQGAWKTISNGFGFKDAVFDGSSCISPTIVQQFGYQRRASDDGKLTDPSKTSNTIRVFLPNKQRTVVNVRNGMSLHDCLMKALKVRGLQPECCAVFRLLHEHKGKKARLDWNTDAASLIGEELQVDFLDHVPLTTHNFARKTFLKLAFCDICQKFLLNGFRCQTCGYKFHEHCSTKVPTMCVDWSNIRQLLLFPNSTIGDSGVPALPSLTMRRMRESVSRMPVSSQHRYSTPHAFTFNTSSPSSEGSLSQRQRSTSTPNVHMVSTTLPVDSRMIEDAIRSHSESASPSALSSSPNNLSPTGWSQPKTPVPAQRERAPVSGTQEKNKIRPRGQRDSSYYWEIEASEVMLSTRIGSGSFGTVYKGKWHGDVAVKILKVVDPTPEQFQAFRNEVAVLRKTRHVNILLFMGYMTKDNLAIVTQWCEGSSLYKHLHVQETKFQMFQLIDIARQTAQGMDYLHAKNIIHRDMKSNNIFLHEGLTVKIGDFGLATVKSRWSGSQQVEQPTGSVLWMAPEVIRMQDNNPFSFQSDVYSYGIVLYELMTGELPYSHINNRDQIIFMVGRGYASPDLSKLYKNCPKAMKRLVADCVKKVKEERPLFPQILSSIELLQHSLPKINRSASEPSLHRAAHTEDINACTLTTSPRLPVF
T1 sequence (P04049 whole entry): as above
T3 sequence (P10398 whole entry): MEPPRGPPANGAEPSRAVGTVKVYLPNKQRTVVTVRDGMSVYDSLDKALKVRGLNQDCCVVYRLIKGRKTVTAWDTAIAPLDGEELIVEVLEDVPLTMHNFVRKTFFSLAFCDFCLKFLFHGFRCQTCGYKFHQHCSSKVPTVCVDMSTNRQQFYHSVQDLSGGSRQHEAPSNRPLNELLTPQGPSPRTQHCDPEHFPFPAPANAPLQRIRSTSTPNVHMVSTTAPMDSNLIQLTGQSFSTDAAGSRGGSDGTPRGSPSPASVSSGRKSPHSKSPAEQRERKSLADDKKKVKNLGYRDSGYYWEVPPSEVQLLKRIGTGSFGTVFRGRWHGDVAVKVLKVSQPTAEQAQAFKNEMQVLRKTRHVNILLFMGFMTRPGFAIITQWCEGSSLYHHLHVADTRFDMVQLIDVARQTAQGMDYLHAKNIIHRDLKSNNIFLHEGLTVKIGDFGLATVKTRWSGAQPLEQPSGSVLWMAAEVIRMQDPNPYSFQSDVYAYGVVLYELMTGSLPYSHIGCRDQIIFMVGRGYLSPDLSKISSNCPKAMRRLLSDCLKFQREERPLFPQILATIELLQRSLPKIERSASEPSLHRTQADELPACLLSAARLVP

| SMILES | cell viability (WST-1), words [1] | cell viability (WST-1), words [2] | cell viability (WST-1), words [3] | caspase 3/7 activity [4] | caspase 3/7 activity [5] | caspase 3/7 activity [6] | blockade of recombinant RAF1 activity [7] | CRAF ATP acyl-phosphate labeling response (words, FIG. 20) [8] | also measured |
| --- | --- | --- | --- | --- | --- | --- | --- | --- | --- |
| O=C(c1ccc(F)cc1)C1CCN(CCn2c(=O)[nH]c3ccccc3c2=O)CC1 [Ketanserin] | lack of activity | lack of activity | lack of activity | did not induce these effects | did not induce these effects | did not induce these effects | not ketanserin | – | – |
| Fc1ccc(C(=C2CCNCC2)c2ccc(F)cc2)cc1 [RF001, 4-(Bis(4-fluorophenyl)methylene) piperidine] | – | – | – | – | – | – | – | inactivates CRAF | – |
| Cc1nc2sccn2c(=O)c1CCN1CCC(=C(c2ccc(F)cc2)c2ccc(F)cc2)CC1 [Ritanserin] | Concentration-dependent decreases in viability | Concentration-dependent decreases in viability | Concentration-dependent decreases in viability | lower degree of activation | comparable activation of caspase 3/7 compared with staurosporine | comparable activation of caspase 3/7 compared with staurosporine | concentrations dependent blockade of recombinant RAF1 activity | inactivates CRAF | cell death (WST-1) ([1]; 5 μM, two days): 5-15%; cell death after 1 day (WST-1) ([1]; 25 μM, 1 day): > 50%; inhibition at 25 µM ([1]; Homo sapiens, A549, 48 h, 25 μM, two days, read-out: inhibition of cell growth (WST-1)): > 70%; cell death (WST-1) ([2]; 5 μM, two days): 5-15%; cell death after 1 day (WST-1) ([2]; 25 μM, 1 day): > 50%; inhibition at 25 µM ([2]; Homo sapiens, NCI-H1650, 48 h, 25 μM, two days, read-out: inhibition of cell growth (WST-1)): > 70%; cell death (WST-1) ([3]; 5 μM, two days): ~50%; cell death after 1 day (WST-1) ([3]; 25 μM, 1 day): > 50%; inhibition at 25 µM ([3]; Homo sapiens, NCI-H82, 48 h, 25 μM, two days, read-out: inhibition of cell growth (WST-1)): > 70%; cell killing of noncancerous primary cells (WST-1), words [9]: negligible cell killing; kinase target by SILAC ratio criterion ([8]; 100 μM, A549 and H82 proteomes): most potent targets; activity by targeted PRM ([8]; H82 proteomes): potent activity against CRAF; activity by targeted PRM [10]: negligible activity; adverse side effects [11]: lack of adverse side effects; half-life ([11]; oral): ~40 h |
